Experimental data published in patent US9266835B2, “Quinoline derivatives useful as CB-1 inverse agonists” (JANSSEN PHARMACEUTICA NV, priority 2014, dated 2016).

Experiments:
[1] = biological target: Human CB1R (Cannabinoid receptor 1) (Homo sapiens (Human), UniProt P21554); experiment: CB-1 in vitro cAMP assay (HTRF), inverse agonism; format: cell-based; conditions: mean where tested more than once
[2] = biological target: Human CB2R (Cannabinoid receptor 2) (Homo sapiens (Human), UniProt P34972); experiment: CB-2 in vitro cAMP assay (HTRF), inverse agonism; format: cell-based; conditions: mean where tested more than once
Chain of Human CB2R (Cannabinoid receptor 2) (P34972 whole entry): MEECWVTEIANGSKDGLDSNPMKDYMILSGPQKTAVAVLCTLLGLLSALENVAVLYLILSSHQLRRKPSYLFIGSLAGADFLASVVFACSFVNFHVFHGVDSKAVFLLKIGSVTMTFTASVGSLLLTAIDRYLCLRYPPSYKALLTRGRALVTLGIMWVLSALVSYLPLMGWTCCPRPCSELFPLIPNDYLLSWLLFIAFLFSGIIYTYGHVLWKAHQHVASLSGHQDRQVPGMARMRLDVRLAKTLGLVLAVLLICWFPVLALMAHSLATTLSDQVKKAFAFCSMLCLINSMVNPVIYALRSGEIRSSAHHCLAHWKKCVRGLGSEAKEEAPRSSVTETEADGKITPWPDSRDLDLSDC

Chain of Human CB1R (Cannabinoid receptor 1) (P21554 whole entry): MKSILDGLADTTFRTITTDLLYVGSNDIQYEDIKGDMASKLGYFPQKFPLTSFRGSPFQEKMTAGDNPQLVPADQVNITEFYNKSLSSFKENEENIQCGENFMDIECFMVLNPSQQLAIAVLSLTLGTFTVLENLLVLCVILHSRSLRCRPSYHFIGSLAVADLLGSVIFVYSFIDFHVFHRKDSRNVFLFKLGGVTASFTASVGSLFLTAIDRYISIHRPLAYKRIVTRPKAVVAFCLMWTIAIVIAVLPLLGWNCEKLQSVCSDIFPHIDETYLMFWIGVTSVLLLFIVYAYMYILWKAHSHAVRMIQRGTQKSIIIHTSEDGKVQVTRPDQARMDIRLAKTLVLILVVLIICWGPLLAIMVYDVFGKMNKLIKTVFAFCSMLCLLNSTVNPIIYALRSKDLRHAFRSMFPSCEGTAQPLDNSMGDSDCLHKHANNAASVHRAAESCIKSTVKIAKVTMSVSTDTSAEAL

| Compound | EC50 [1] [nM] | EC50 [2] [µM] |
| --- | --- | --- |
| O=C(O)CCC(=O)N1CCC(Nc2cc(=O)[nH]c3ccc(C(c4ccc(Cl)cc4)c4ccc(Cl)cc4)cc23)CC1 [Compound 98, 4-(4-((6-(bis(4-chlorophenyl)methyl)-2-oxo-1,2-dihydroquinolin-4-yl)amino)piperidin-1-yl)-4-oxobutanoic acid] | 242 | > 10 |
| O=c1cc(NC2CCN(S(=O)(=O)C(F)(F)F)CC2)c2cc(C(c3ccc(Cl)cc3)c3ccc(Cl)cc3)cc(NC3CCN(S(=O)(=O)C(F)(F)F)CC3)c2[nH]1 [Compound 99] | > 10000 | > 10 |
| COCCNc1cc(C(c2ccc(Cl)cc2)c2ccc(Cl)cc2)cc2c(NC3CCN(S(=O)(=O)C(F)(F)F)CC3)cc(=O)[nH]c12 [Compound 100, 6-(bis(4-chlorophenyl)methyl)-8-((2-methoxyethyl)amino)-4-((1-((trifluoromethyl)sulfonyl)piperidin-4-yl)amino)quinolin-2(1H)-one] | 6 | 0.2 |
| COCCNc1ccc(C(c2ccc(Cl)cc2)c2cc(NCCOC)c3[nH]c(=O)cc(NC4CCN(S(=O)(=O)C(F)(F)F)CC4)c3c2)cc1 (stereo not shown) [Compound 101, 6-((4-chlorophenyl)(4-((2-methoxyethyl)amino)phenyl)methyl)-8-((2-methoxyethyl)amino)-4-((1-((trifluoromethyl)sulfonyl)piperidin-4-yl)amino)quinolin-2(1H)-one] | 15 | 0.91 |
| CCOC(=O)CS(=O)(=O)N1CCC(Nc2cc(=O)[nH]c3ccc(C(c4ccc(Cl)cc4)c4ccc(Cl)cc4)cc23)CC1 [Compound 102, ethyl 2-((4-((6-(bis(4-chlorophenyl)methyl)-2-oxo-1,2-dihydroquinolin-4-yl)amino)piperidin-1-yl)sulfonyl)acetate] | 17 | > 10 |
| CCOC(=O)CCCNc1cc(C(c2ccc(Cl)cc2)c2ccc(Cl)cc2)cc2c(NC3CCN(S(=O)(=O)C(F)(F)F)CC3)cc(=O)[nH]c12 [Compound 104, Ethyl 4-({6-[bis(4-chlorophenyl)methyl]-2-oxo-4-({1-[(trifluoromethyl)sulfonyl]-piperidin-4-yl}amino)-1,2-dihydroquinolin-8-yl}amino)butanoate] | 1120 | > 10 |
| CC(C)(C)OC(=O)COc1ccc(Nc2cc(=O)[nH]c3ccc(C(c4ccc(Cl)cc4)c4ccc(Cl)cc4)cc23)cc1 [Compound 105, tert-butyl 2-(4-((6-(bis(4-chlorophenyl)methyl)-2-oxo-1,2-dihydroquinolin-4-yl)amino)phenoxy)acetate] | 95 | > 10 |
| NC(=O)CC(=O)N1CCC(Nc2cc(=O)[nH]c3ccc(C(c4ccc(Cl)cc4)c4ccc(Cl)cc4)cc23)CC1 [Compound 106, 3-(4-((6-(bis(4-chlorophenyl)methyl)-2-oxo-1,2-dihydroquinolin-4-yl)amino)piperidin-1-yl)-3-oxopropanamide] | 1550 | 6.5 |
| O=C1CCCN1c1cc(C(c2ccc(Cl)cc2)c2ccc(Cl)cc2)cc2c(NC3CCN(S(=O)(=O)C(F)(F)F)CC3)cc(=O)[nH]c12 [Compound 107, 6-(bis(4-chlorophenyl)methyl)-8-(2-oxopyrrolidin-1-yl)-4-((1-((trifluoromethyl)sulfonyl)piperidin-4-yl)amino)quinolin-2(1H)-one] | 52 | 0.67 |
| O=C(O)CCCNc1cc(C(c2ccc(Cl)cc2)c2ccc(Cl)cc2)cc2c(NC3CCN(S(=O)(=O)C(F)(F)F)CC3)cc(=O)[nH]c12 [Compound 108, 4-((6-(bis(4-chlorophenyl)methyl)-2-oxo-4-((1-((trifluoromethyl)sulfonyl)piperidin-4-yl)amino)-1,2-dihydroquinolin-8-yl)amino)butanoic acid] | 310 | 0.46 |
| O=C(O)COc1ccc(Nc2cc(=O)[nH]c3ccc(C(c4ccc(Cl)cc4)c4ccc(Cl)cc4)cc23)cc1 [Compound 109, 2-(4-((6-(bis(4-chlorophenyl)methyl)-2-oxo-1,2-dihydroquinolin-4-yl)amino)phenoxy)acetic acid] | 5120 | > 10 |
| COCCn1c(=O)cc(NC2CCN(S(=O)(=O)C(F)(F)F)CC2)c2cc(C(c3ccc(Cl)cc3)c3ccc(Cl)cc3)ccc21 [Compound 110, 6-(bis(4-chlorophenyl)methyl)-1-(2-methoxyethyl)-4-((1-((trifluoromethyl)sulfonyl)piperidin-4-yl)amino)quinolin-2(1H)-one] | 228 | > 10 |
| NC(=O)COc1ccc(Nc2cc(=O)[nH]c3ccc(C(c4ccc(Cl)cc4)c4ccc(Cl)cc4)cc23)cc1 [Compound 111, 2-(4-((6-(bis(4-chlorophenyl)methyl)-2-oxo-1,2-dihydroquinolin-4-yl)amino)phenoxy)acetamide] | 99 | > 10 |
| NC(=O)CCC(=O)N1CCC(Nc2cc(=O)[nH]c3ccc(C(c4ccc(Cl)cc4)c4ccc(Cl)cc4)cc23)CC1 [Compound 112, 4-[4-({6-[Bis(4-chlorophenyl)methyl]-2-oxo-1,2-dihydroquinolin-4-yl}amino)piperidin-1-yl]-4-oxobutanamide] | 302 | > 10 |
| COC(=O)c1ccc(C(=O)N2CCC(Nc3cc(=O)[nH]c4ccc(C(c5ccc(Cl)cc5)c5ccc(Cl)cc5)cc34)CC2)cc1 [Compound 113, Methyl 4-{[4-({6-[bis(4-chlorophenyl)methyl]-2-oxo-1,2-dihydroquinolin-4-yl}amino)piperidin-1-yl]carbonyl}benzoate] | 25 | > 10 |
| CC(C)(C)OC(=O)CCN1CCC(Nc2cc(=O)[nH]c3ccc(C(c4ccc(Cl)cc4)c4ccc(Cl)cc4)cc23)CC1 [Compound 114, tert-butyl 3-(4-((6-(bis(4-chlorophenyl)methyl)-2-oxo-1,2-dihydroquinolin-4-yl)amino)piperidin-1-yl)propanoate] | 103 | > 10 |
| O=C(O)CCN1CCC(Nc2cc(=O)[nH]c3ccc(C(c4ccc(Cl)cc4)c4ccc(Cl)cc4)cc23)CC1 [Compound 115, 3-[4-({6-[Bis(4-chlorophenyl)methyl]-2-oxo-1,2-dihydroquinolin-4-yl}amino)piperidin-1-yl]propanoic acid] | > 10000 | > 10 |
| O=C(O)c1ccc(C(=O)N2CCC(Nc3cc(=O)[nH]c4ccc(C(c5ccc(Cl)cc5)c5ccc(Cl)cc5)cc34)CC2)cc1 [Compound 116, 4-{[4-({6-[Bis(4-chlorophenyl)methyl]-2-oxo-1,2-dihydroquinolin-4-yl}amino)piperidin-1-yl]carbonyl}benzoic acid] | 438 | > 10 |
| O=C(O)CN1CCC(Nc2cc(=O)[nH]c3ccc(C(c4ccc(Cl)cc4)c4ccc(Cl)cc4)cc23)CC1 [Compound 117, [4-({6-[Bis(4-chlorophenyl)methyl]-2-oxo-1,2-dihydroquinolin-4-yl}amino)piperidin-1-yl]acetic acid] | 9700 | > 10 |
| CC(C)(C)OC(=O)/N=C(/NC(=O)OC(C)(C)C)N1CCC(Nc2cc(=O)[nH]c3ccc(C(c4ccc(Cl)cc4)c4ccc(Cl)cc4)cc23)CC1 [Compound 119, (Z)-tert-butyl ((4-((6-(bis(4-chlorophenyl)methyl)-2-oxo-1,2-dihydroquinolin-4-yl)amino)piperidin-1-yl)((tert-butoxycarbonyl)imino)methyl)carbamate] | 128 | > 10 |
